Experimental findings from ChEMBL document CHEMBL5038653, “A Brain-Penetrant and Bioavailable Pyrazolopiperazine BACE1 Inhibitor Elicits Sustained Reduction of Amyloid β In Vivo” (ACS Med Chem Lett, 2022) are described below.

Converted amounts (≈) assume the structure as drawn. The source made the active and inactive calls. The calls are words filed in the database; no cut-off is given here. Where only a bound is given, the exact number is not on record here.

The target of data set [1] is Voltage-gated inwardly rectifying potassium channel KCNH2 (Homo sapiens, UniProt Q12809). Nature of the data set: Inhibition of hERG expressed in HEK293 cells at -80 mV holding potential by automated patch-clamp method. The format is toxicity, cell-based. A general note: The hERG channel carries a current that helps repolarise heart muscle cells.
Voltage-gated inwardly rectifying potassium channel KCNH2, sequence (Q12809 whole entry, the tested form may be a part): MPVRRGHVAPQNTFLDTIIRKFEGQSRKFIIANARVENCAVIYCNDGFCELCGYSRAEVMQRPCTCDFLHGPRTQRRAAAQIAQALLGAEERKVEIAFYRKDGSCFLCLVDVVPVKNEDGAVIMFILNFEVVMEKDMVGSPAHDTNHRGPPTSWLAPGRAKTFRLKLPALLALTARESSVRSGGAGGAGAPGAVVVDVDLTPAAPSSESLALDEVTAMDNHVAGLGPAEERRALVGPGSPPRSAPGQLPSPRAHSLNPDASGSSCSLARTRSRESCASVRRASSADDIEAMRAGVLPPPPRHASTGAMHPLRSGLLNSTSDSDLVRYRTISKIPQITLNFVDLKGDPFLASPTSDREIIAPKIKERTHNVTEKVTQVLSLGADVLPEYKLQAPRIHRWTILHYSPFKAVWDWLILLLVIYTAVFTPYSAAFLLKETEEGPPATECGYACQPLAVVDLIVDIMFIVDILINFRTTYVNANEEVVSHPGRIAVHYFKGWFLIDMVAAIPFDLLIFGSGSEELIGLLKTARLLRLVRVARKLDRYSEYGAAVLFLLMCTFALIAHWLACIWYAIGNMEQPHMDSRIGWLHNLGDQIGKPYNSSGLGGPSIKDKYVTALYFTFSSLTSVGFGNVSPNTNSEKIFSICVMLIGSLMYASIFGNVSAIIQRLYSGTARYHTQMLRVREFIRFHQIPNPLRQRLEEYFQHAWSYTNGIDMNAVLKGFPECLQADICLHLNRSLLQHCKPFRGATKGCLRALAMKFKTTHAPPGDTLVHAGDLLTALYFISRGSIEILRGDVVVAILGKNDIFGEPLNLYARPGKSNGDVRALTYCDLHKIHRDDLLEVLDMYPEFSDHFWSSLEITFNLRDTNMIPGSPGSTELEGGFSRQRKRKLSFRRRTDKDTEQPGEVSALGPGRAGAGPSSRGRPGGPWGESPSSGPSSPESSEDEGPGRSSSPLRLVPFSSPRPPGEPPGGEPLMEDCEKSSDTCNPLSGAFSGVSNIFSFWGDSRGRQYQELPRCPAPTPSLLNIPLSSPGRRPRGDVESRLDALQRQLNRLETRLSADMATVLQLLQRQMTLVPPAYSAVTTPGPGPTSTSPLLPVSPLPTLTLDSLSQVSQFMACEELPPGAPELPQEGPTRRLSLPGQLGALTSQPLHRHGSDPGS
For data set [2], the target named is Beta-secretase 1 (Homo sapiens, UniProt P56817). Nature of the data set: Inhibition of BACE1 (1 to 454 residues) (unknown origin) using APP harboring Swedish Lys/Met mutant-derived peptide as substrate by FRET assay.
Beta-secretase 1, sequence (P56817 whole entry, the tested form may be a part): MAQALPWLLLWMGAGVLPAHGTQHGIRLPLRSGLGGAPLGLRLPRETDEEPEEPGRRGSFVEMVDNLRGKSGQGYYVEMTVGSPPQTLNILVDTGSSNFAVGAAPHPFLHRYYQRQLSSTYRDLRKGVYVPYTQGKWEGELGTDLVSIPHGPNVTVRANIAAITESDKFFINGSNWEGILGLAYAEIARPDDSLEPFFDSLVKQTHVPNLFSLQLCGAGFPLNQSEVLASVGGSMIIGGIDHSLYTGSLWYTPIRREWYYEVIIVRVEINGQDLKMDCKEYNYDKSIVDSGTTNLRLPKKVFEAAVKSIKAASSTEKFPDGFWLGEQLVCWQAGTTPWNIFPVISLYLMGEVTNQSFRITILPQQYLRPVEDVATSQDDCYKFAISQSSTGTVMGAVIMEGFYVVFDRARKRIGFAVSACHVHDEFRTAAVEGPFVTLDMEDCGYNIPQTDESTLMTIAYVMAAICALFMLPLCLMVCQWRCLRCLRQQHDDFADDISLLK
Data set [3] deals with MDR1. In words: Efflux ratio of apparent permeability in dog MDCK-MDR1 cells. Format: ADME, cell-based, Canis lupus familiaris.
The target in data set [4] is hERG (KCNH2) (Homo sapiens, UniProt Q12809). In words: Inhibition of hERG expressed in HEK293 cells at 3 uM at -80 mV holding potential by automated patch-clamp method. The format is toxicity, cell-based. As to conditions: HEK293 cells expressing hERG.
hERG (KCNH2), sequence (Q12809 whole entry): as the sequence (Q12809 whole entry, the tested form may be a part) above
Data set [5] deals with T1, Cytochrome P450 3A4 (Homo sapiens, UniProt P08684). Nature of the data set: Inhibition of human CYP3A4 by fluorescence plate reader analysis. Format: ADME.
T1 sequence (P08684 whole entry): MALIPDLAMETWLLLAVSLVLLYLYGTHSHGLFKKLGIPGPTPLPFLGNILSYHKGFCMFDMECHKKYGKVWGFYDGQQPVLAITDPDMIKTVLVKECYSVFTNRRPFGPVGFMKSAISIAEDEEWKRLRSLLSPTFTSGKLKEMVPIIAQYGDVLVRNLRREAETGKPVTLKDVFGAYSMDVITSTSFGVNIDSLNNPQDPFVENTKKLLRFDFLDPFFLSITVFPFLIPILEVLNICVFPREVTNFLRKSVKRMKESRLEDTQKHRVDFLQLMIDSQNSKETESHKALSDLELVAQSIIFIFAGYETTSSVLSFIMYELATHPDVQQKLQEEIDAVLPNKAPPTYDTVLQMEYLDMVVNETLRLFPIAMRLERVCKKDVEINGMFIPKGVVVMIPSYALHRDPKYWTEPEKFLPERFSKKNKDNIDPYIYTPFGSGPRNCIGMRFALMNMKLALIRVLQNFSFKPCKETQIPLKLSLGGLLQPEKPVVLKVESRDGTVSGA
The target of data set [6] is T1, Cytochrome P450 3A4. In words: Inhibition of human CYP3A4 using midazolam as substrate by fluorescence plate reader analysis. The format is ADME. The note with it: for inhibition (INH): human.
Data set [7] in a line: Metabolic stability in human liver microsomes assessed as metabolite formation after 15 mins in presence of NADPH by LC-MS analysis. The format is ADME, Microsome. The note with it: 0.25 h. (Microsomes from liver hold many membrane-bound enzymes, among them those of drug oxidation.)
Data set [8] addresses T2, Cytochrome P450 2C8 (Homo sapiens, UniProt P10632).
T2 sequence (P10632 whole entry): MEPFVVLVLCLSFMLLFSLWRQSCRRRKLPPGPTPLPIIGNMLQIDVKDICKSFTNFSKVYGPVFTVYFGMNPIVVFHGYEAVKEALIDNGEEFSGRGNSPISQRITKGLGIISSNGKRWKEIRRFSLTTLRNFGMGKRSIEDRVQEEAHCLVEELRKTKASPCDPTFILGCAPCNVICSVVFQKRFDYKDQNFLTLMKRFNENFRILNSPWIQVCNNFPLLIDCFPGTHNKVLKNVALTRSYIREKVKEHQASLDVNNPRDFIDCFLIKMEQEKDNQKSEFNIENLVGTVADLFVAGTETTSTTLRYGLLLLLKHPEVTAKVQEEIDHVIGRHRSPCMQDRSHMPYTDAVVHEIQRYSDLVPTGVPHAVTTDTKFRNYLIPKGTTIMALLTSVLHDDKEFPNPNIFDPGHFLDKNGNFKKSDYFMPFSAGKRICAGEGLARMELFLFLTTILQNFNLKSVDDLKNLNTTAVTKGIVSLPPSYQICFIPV
Nature of the data set: Inhibition of human CYP2C8 by fluorescence plate reader analysis. The format is ADME.

Data set [9] in a line: Half life in Beagle dog at 2.5 mg/kg, po. Format: ADME, organism-based, Canis lupus familiaris. The note with it: in vivo.
The target of data set [10] is T3, Cytochrome P450 1A2 (Homo sapiens, UniProt P05177).
T3 sequence (P05177 whole entry): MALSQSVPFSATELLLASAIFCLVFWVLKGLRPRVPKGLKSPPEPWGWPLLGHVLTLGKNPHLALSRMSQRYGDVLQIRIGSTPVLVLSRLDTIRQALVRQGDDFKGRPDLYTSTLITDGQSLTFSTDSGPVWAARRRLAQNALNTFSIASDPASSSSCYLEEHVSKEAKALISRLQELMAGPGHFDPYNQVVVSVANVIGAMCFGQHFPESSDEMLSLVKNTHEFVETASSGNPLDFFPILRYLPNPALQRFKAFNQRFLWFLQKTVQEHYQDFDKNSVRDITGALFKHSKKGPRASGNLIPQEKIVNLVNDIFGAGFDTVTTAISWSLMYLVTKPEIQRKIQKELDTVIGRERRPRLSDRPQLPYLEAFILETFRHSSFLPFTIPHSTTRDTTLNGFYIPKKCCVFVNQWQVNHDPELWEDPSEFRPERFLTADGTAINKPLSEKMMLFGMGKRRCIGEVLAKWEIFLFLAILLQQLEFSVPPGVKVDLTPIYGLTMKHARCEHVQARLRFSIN
In words: Inhibition of human CYP1A2 by fluorescence plate reader analysis. The format is ADME.

A short description of data set [11]: Free drug concentration in rat brain measured after 5 hrs by HPLC-MS/MS method. The format is ADME, tissue-based.
Data set [12] is described as follows: Dissociation constant, pKa of the compound by fast UV-spectrometric titration analysis. The format is physicochemical.
Data set [13] deals with T1, Cytochrome P450 3A4. Nature of the data set: Inhibition of human CYP3A4 using testosterone as substrate by fluorescence plate reader analysis. Format: ADME.
Data set [14] in a line: Total plasma concentration in Beagle dog at 2.5 mg/kg, po. The format is ADME, organism-based, Canis lupus familiaris. As to conditions: in vivo.
Data set [15] can be described thus: Free drug concentration in mouse plasma measured after 4.5 hrs by HPLC-MS/MS method. The format is ADME, cell-free.
The test system of data set [16] is Canis lupus familiaris. Nature of the data set: In vivo inhibition of BACE1 in Beagle dog assessed as reduction of amyloid beta (1 to 42 residues) levels in CSF at 2.5 mg/kg, po measured after 24 hrs by electrochemiluminescence assay. The format is functional, organism-based.
Data set [17] can be described thus: Free drug concentration in dog plasma measured after 4.5 hrs by HPLC-MS/MS method. Format: ADME, cell-free, Canis lupus familiaris.
The target of data set [18] is T1, Cytochrome P450 3A4. Nature of the data set: Time dependent inhibition of human CYP3A4 using testosterone as substrate by fluorescence plate reader analysis. Format: ADME.
Data set [19] in a line: Free drug concentration in human plasma measured after 4.5 hrs by HPLC-MS/MS method. The format is ADME, cell-free.
Data set [20] in a line: Ratio of apparent permeability across apical to basolateral side in the presence of P-gp inhibitor elacridar to the absence of P-gp inhibitor elacridar in dog MDCK-MDR1 cells at 5 uM incubated for 120 mins. The format is ADME, cell-based, Canis lupus familiaris. The note with it: 2 h.
Data set [21] can be described thus: Metabolic stability in mouse liver microsomes assessed as metabolite formation after 15 mins in presence of NADPH by LC-MS analysis. Format: ADME, Microsome. As to conditions: 0.25 h.
The target in data set [22] is Cytochrome P450 2C19 (Homo sapiens, UniProt P33261). In words: Inhibition of human CYP2C19 by fluorescence plate reader analysis. The format is ADME.
Cytochrome P450 2C19, sequence (P33261 whole entry): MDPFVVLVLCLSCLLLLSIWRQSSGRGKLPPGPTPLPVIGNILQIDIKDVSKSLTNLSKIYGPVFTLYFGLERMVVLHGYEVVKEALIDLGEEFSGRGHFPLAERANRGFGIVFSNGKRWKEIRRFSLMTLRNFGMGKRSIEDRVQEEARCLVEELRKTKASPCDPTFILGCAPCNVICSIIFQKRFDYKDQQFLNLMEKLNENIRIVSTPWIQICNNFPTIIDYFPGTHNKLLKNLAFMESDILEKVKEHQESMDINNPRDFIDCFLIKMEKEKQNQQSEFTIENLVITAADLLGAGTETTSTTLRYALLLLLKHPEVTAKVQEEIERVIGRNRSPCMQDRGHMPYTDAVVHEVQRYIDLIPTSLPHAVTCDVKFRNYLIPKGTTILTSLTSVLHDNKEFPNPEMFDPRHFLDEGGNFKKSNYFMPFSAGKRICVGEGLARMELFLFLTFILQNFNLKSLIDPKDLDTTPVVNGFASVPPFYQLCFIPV
Data set [23] deals with Cytochrome P450 2C9 (Homo sapiens, UniProt P11712). Nature of the data set: Inhibition of human CYP2C9 by fluorescence plate reader analysis. Format: ADME.
Cytochrome P450 2C9, sequence (P11712 whole entry, the tested form may be a part): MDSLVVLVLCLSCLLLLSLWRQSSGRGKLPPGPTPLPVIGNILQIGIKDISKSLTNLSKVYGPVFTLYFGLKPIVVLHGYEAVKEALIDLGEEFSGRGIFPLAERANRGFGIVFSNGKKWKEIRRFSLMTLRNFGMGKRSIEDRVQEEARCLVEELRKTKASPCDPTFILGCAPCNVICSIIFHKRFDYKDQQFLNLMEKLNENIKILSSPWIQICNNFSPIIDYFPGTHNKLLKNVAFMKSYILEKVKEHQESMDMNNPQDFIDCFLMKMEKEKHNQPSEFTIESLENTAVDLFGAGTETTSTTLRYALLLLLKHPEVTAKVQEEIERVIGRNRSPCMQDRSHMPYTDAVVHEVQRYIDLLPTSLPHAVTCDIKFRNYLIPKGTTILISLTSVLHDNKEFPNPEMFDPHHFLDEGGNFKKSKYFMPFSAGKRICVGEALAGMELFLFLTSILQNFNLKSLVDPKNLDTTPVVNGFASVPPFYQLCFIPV
Data set [24] can be described thus: In vivo inhibition of BACE1 in Beagle dog assessed as reduction of amyloid beta (1 to 42 residues) levels in CSF administered orally by electrochemiluminescence assay. Format: functional, organism-based, Canis lupus familiaris. The note with it: Canis lupus familiaris, Beagle.

The IC50 is the concentration needed to halve the response being measured. Low readings indicate inhibition by little substance, high ones a need for much substance. A word on the efflux ratio: it is a quotient of directional permeabilities that is used to spot active efflux. As for `C[C@@]1(c2cc(NC(=O)c3ccc(OC(F)F)cn3)ccc2F)Cn2nc(C#N)cc2C(N)=N1`, the 50% inhibitory concentration (IC50) in data set [1] turned out to be 6600 nM; in [2], 1.4 nM. In addition, in [3], the efflux ratio stood at 7.

As a reminder, the inhibition is the share of the control response that was lost under treatment. For the compound `C[C@@]1(c2cc(NC(=O)c3ccc(C#N)cn3)ccc2F)Cn2nc(C#N)cc2C(N)=N1`, the IC50 in data set [1] stood at 4600 nM; in data set [2], 1.7 nM. The inhibition at 3 µM in data set [4] stood at 71%. In addition, the efflux ratio in [3] was 15.2.

For the compound `Cc1nc(C(=O)Nc2ccc(F)c([C@]3(C)Cn4nc(C#N)cc4C(N)=N3)c2)co1`, the IC50 in data set [1] is over 10000 nM; in data set [2], 4.5 nM. The efflux ratio in data set [3] worked out at 19.4.

For `COc1cnc(C(=O)Nc2ccc(F)c([C@]3(C)Cn4c(C#N)cnc4C(N)=N3)c2)cn1`, the IC50 in data set [1] is over 10000 nM; in [2] it was 5.5 nM; in data set [5], 3100 nM.

As to `C[C@@]1(c2cc(NC(=O)c3ccc(F)cn3)ccc2F)Cn2nc(C#N)cc2C(N)=N1`, the half-maximal inhibitory concentration (IC50) in data set [1] came out at 3300 nM; in data set [2], 2.8 nM. The efflux ratio in data set [3] is 7.

For `C[C@@]1(c2cc(NC(=O)c3ccc(Cl)cn3)ccc2F)Cn2c(C#N)cnc2C(N)=N1`, the IC50 was over 10000 nM in data set [1], 2.6 nM in data set [2] and 900 nM in data set [5]. For the same compound, in data set [6], the “inhibition (INH)” value was “Active”.

Consider `C[C@@]1(c2cc(NC(=O)c3cnc(C(F)F)cn3)ccc2F)Cn2nc(C#N)cc2C(N)=N1`, for which the IC50 in data set [1] is over 10000 nM; in data set [2], 3.7 nM. Besides, in data set [3], the efflux ratio is 11.5.

In the case of `C[C@@]1(c2cc(NC(=O)c3ccc(C#N)cn3)ccc2F)Cn2ccnc2C(N)=N1`, at 3 µM the inhibition in [4] was 76%.

As to `CC(C)(C)OC(=O)Nc1ccc(F)c([C@]2(C)Cn3c(C#N)cnc3C(N)=N2)c1`, in data set [6], the “inhibition (INH)” value is “Active”.

`C[C@@]1(c2cc(NC(=O)c3ccc(F)cn3)ccc2F)Cn2c(C#N)cnc2C(N)=N1`: the IC50 in data set [1] was over 10000 nM; in data set [2], 11.5 nM; in [5] it was 4400 nM. For the same compound, in data set [6], the “inhibition (INH)” value is “Active”.

On to `C[C@@]1(c2cc(NC(=O)c3cnc(OCF)cn3)ccc2F)Cn2nc(C#N)cc2C(N)=N1`, for which the IC50 in data set [1] is over 10000 nM; in [2] it was 2.3 nM. Moreover, the efflux ratio in [3] stood at 8.5.

For orientation: half-life means how long it takes for the measured level to halve. Usually fraction unbound stands for the share of the substance not bound to proteins or other matrix. Lower therefore signals little free substance. Broadly, the pKa is the pH at which an ionisable group is half protonated. One may read the EC50 as the concentration giving half of the maximal effect. In the case of `C[C@@]1(c2cc(NC(=O)c3ccc(C#N)cn3)ccc2F)Cn2c(C#N)cnc2C(N)=N1`, the IC50 was over 10000 nM in [1]; over 10000 nM in data set [8]; over 10000 nM in data set [10]; 1500 nM in [13]; 270 nM in data set [18]; 3.7 nM in data set [2]. Further, the half-inhibitory concentration (IC50) is 6700 nM in data set [6], 6700 nM in data set [5], over 10000 nM in data set [22] and over 10000 nM in data set [23]. The Drug metabolism is given as 34% in data set [7] and 81% in [21]. Moreover, the half-life in data set [9] is 8 h. Further, in [11], the fraction unbound at 5 h was 0.15. The pKa in data set [12] came out at 7.2. Also, in [14], the concentration came out at 72 nM. In addition, the fraction unbound at 4.5 h in data set [15] came out at 0.06; in data set [17] it was 0.32; in data set [19], 0.2. In data set [16], the inhibition result is “inactive”. Moreover, the Ratio in data set [20] stood at 9.3. In addition, the EC50 in [24] came to 0.03 µg/mL (≈ 0.0724 µM).

For the compound `C[C@@]1(c2cc(NC(=O)c3ccc(C#N)cn3)ccc2F)Cn2cc(C#N)nc2C(N)=N1`, the half-maximal inhibitory concentration (IC50) in data set [1] is 6600 nM; in data set [2] it was 13 nM. Also, the Drug metabolism in [7] is given as 3%; in [21] it was 95%. In data set [12], this compound had a pKa of 7. Also, the Ratio in data set [20] is 16.8.
